From US8173606B2, “Sulfated oligosaccharide derivatives” (Progen Pharmaceuticals Limited, priority 2004, dated 2012)

Tests used:
FGF-1 = FGF-1 (Homo sapiens, UniProt P05230); assay: SPR based solution affinity assay, growth factor binding (FGF-1); settings: heparin-coated sensorchip, HBS-EP buffer, 25° C.; read-out: Kd aFGF
Procedure: (§1) Binding affinities of ligands for the growth factors FGF-1, FGF-2 and VEGF were measured using a surface plasmon resonance (SPR) based solution affinity assay. The principle of the assay is that heparin immobilised on a sensorchip surface distinguishes between free and bound growth factor in an equilibrated solution of the growth factor and a ligand. Upon injection of the solution, the free growth factor binds to the immobilised heparin, is detected as an increase in the SPR response and its concentration thus determined. A decrease in the free growth factor concentration as a function of the ligand concentration allows for the calculation of the dissociation constant, Kd. It is important to note that ligand binding to the growth factors can only be detected when the interaction involves the HS binding site, thus eliminating the chance of evaluating non-specific binding to other sites on the protein. A 1:1 stoichiometry has been assumed for all protein:ligand interactions.
(§2) For the testing of growth factor binding activity, heparin-coated sensorchips were used. Their preparation, via immobilisation of biotinylated BSA-heparin on a streptavidin-coated sensorchip, has been described.[5] Heparin has also been immobilised via aldehyde coupling using either adipic acid dihydrazide or 1,4-diaminobutane. […] Ligands binding to FGF-1 and VEGF were measured in HBS-EP buffer (10 mM HEPES, pH 7.4, 150 mM NaCl, 3.0 mM EDTA and 0.005% (v/v) polysorbate 20), while binding to FGF-2 was measured in HBS-EP buffer containing 0.3 M NaCl.[5] […] For each assay mixture, 50-200 μL of solution was injected at 5-40 μL/min and the relative binding response measured. […]
(§3) Sensorgram data were analysed using the BIAevaluation software (BIAcore). […]
(§4) [formula] and the binding equation[5] can be expressed as
(§5) The Kd values given are the values fit, using the binding equation, to a plot of [P] versus [L]total. Where Kd values were measured in duplicate, the values represent the average of the duplicate measurements. […]

FGF-2 = FGF-2 (Homo sapiens, UniProt P09038); assay: SPR based solution affinity assay, growth factor binding (FGF-2); settings: heparin-coated sensorchip, HBS-EP buffer containing 0.3 M NaCl, 25° C.; read-out: Kd bFGF
Procedure: as §1, §2, §3, §4, §5

VEGF = biological target: T1, VEGF (Homo sapiens, UniProt P15692); assay: SPR based solution affinity assay, growth factor binding (VEGF); settings: heparin-coated sensorchip, HBS-EP buffer, 25° C.
T1 sequence (P15692 27-191 isoform P15692-4): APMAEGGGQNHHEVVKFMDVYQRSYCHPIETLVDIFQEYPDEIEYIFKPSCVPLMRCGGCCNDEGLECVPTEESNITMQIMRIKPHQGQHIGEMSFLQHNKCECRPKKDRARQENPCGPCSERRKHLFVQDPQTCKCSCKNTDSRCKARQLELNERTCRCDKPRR
Procedure: as §1, §2, §3, §4, §5

[1] = tested on: herpes simplex virus (HSV-1) KOS321 strain; assay: Antiviral assay, HSV-1 infectivity (plaque forming units); format: cell-based; settings: African green monkey kidney cells; virus pre-incubated with compound 10 min
Text: (§6) In panel A, the results are expressed as a percentage of the number of viral plaque forming units (PFU) formed in cells infected with the compound-treated virions relative to mock-treated controls. In panel B, the results are expressed as a percentage of the average area of 20 viral plaques formed in the continuous presence of compound relative to mock-treated control cells. Monolayer cultures of African green monkey kidney cells[35] and herpes simplex virus (HSV-1) KOS321 strain[36] were used throughout. The antiviral assays on the compounds were performed as described by Nyberg et al.[13] Briefly, the effects of the compounds on the infection of cells by exogenously added virus were tested by mixing serial fivefold dilutions of compound (at 0.032-20 μM) with approximately 200 plaque forming units of the virus. Following incubation of the virus and compound for 10 min at room temperature, the mixture was added to the cells and left on the cell monolayer for 2 h at 37° C. Subsequently, the inoculum was aspirated and replaced with an overlay medium of 1% methylcellulose solution in Eagle's minimum essential medium (EMEM). The viral plaques that developed after incubation of cells for 3 days at 37° C. were stained with 1% crystal violet solution and counted. The effects of the compounds on cell-to-cell spread of HSV-1 were tested by adding serial fivefold dilutions of compound (at 0.032-20 μM) in the serum-free overlay medium to cells after their infection with HSV-1. After incubation of the compound with the cells for 3 days at 37° C., the images of 20 plaques were captured and subjected to area determination using IM500 software (Leica).

[2] = tested on: herpes simplex virus (HSV-1) KOS321 strain; assay: Antiviral assay, HSV-1 cell-to-cell spread (plaque area); format: cell-based; settings: African green monkey kidney cells; compound in overlay medium after infection, 3 days
Text: as §6

FGF-1, sequence (P05230 whole entry, species assumed): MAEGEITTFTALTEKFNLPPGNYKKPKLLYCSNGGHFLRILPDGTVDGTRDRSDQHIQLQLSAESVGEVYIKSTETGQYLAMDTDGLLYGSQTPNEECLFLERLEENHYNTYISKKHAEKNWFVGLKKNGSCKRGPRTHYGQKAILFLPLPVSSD
FGF-2, sequence (P09038 143-288, species assumed): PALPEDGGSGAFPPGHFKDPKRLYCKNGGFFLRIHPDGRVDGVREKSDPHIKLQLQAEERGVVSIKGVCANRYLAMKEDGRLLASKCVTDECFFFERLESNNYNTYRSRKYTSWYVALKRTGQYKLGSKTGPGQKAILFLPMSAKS

Substance | Kd (FGF-1) [µM] | Kd (FGF-2) [µM] | Kd (VEGF) [µM] | IC50 [1] [µM] | IC50 [2] [µM]
Benzyl Glycoside Polysulfate [PG500] | 0.00012 ± 2.5e-05 | 0.086 ± 0.007 | 0.00172 ± 0.00019 | 2 | 1
Octyl Glycoside Polysulfate [PG501] | 0.000144 ± 8e-06 | 0.0683 ± 0.0029 | 0.00167 ± 0.00011 | 1 | 0.4
